Data from patent publication US11104648B2, “Pyrazole derivative” (Zhejiang Research Institute of Chemical Industry Co., Ltd., priority 2018, dated 2021).
Where two headings read alike, the source gives them in different places.

Assays:
Format in all cases: in vivo
[1] = test system: Eggs of Tetranychus Cinnabarinus; test: Activity assay of eggs of Tetranychus cinnabarinus (spray method, ovicidal); conditions: Tetranychus cinnabarinus; for pest or weed control at 2 µg/mL: concentration 2 mg/L; for pest or weed control at 5 µg/mL: concentration 5 mg/L, non-incubated eggs counted as dead
Summary of the method: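 Female mites laid eggs on broad bean leaves for 24 h, adults removed, eggs sprayed with compound in DMF (≤10%)/1‰ Tween 80. Held at 26±2° C, 70–80% humidity, 16 h light; unhatched eggs counted dead once blank control hatched. Three replicates.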

[2] = test system: adult Tetranychus cinnabarinus; test: Activity assay of adult Tetranychus cinnabarinus (whole-plant spray on bean seedlings); conditions: 48 h; for pest or weed control at 1.25 µg/mL: concentration 1.25 mg/L; for pest or weed control at 2.5 µg/mL: concentration 2.5 mg/L
Summary of the method: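 Bean seedlings at two-true-leaf stage, infested with adult mites and base count taken, sprayed whole-plant with compound in DMF (≤10%) diluted in 1‰ Tween 80. Three replicates per treatment kept in standard observation room. Surviving mites counted at 48 h to give death rate.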

[3] = test system: Tetranychus cinnabarinus Nymphs; test: Activity assay of Tetranychus cinnabarinus nymphs (spray on broad bean leaves); conditions: 48 h; for pest or weed control at 2 µg/mL: concentration 2 mg/L; for pest or weed control at 2 µg/mL / pest or weed control at 2.5 µg/mL: read-out: nymph-killing activity; for pest or weed control at 2.5 µg/mL: concentration 2.5 mg/L
Summary of the method: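 Compound in DMF (≤10%) diluted in 1‰ Tween 80 water was sprayed onto broad bean leaves carrying nymphs hatched from eggs laid by female adults over 24 h. Kept at 26±2° C., 70%–80% humidity, 16 h light; mortality (no response to touch) assessed after 48 h, three replicates with blank control.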

[4] = spray, read-out: ovicidal activity
[5] = read-out: adult mite-killing activity

Compound | pest or weed control at 2 µg/mL [1, 4] [%] | pest or weed control at 5 µg/mL [1, 4] [%] | pest or weed control at 1.25 µg/mL [2, 5] [%] | pest or weed control at 2.5 µg/mL [2, 5] [%] | pest or weed control at 2 µg/mL [3] [%] | pest or weed control at 2.5 µg/mL [3] [%] | pest or weed control at 2 µg/mL ([1]; eggs, parallel determination, read-out: Death rate (%)) [%] | pest or weed control at 1.25 µg/mL ([2]; adult mites, parallel determination, read-out: Death rate (%)) [%] | pest or weed control at 0.5 µg/mL ([3]; nymphs, concentration 0.5 mg/L, parallel determination, read-out: Death rate (%)) [%]
CCn1nc(C)cc1/C(OC(C)OC(=O)OC)=C(\C#N)c1ccc(C(C)(C)C)cc1 (stereo not drawn) [Compound 579] | ≥ 90 | ≥ 90 | ≥ 90 | ≥ 90 | ≥ 90 | ≥ 95 | – | – | –
CCOC(=O)OC(C)O/C(=C(/C#N)c1ccc(C(C)(C)C)cc1)c1cc(C)nn1CC (stereo not drawn) [Compound 580] | ≥ 90 | ≥ 90 | ≥ 90 | ≥ 90 | ≥ 90 | ≥ 95 | – | – | –
CCn1nc(C)cc1/C(OC(C)OC(=O)OC(C)C)=C(\C#N)c1ccc(C(C)(C)C)cc1 (stereo not drawn) [Compound 582] | – | ≥ 90 | – | ≥ 90 | – | ≥ 95 | – | – | –
CCCCOC(=O)OC(C)O/C(=C(/C#N)c1ccc(C(C)(C)C)cc1)c1cc(C)nn1CC (stereo not drawn) [Compound 584] | – | ≥ 90 | – | ≥ 90 | – | ≥ 95 | – | – | –
CCn1nc(C)cc1/C(OC(C)OC(=O)OCC(C)C)=C(\C#N)c1ccc(C(C)(C)C)cc1 (stereo not drawn) [Compound 585] | ≥ 90 | ≥ 90 | ≥ 90 | ≥ 90 | ≥ 90 | ≥ 95 | 100 | 100 | 96
CCn1nc(C)cc1/C(OC(C)OC(=O)OCCC(C)C)=C(\C#N)c1ccc(C(C)(C)C)cc1 (stereo not drawn) [Compound 586] | – | ≥ 90 | – | ≥ 90 | – | ≥ 95 | – | – | –
CCCCCOC(=O)OC(C)O/C(=C(/C#N)c1ccc(C(C)(C)C)cc1)c1cc(C)nn1CC (stereo not drawn) [Compound 588] | – | ≥ 90 | – | ≥ 90 | – | ≥ 95 | – | – | –
CCn1nc(C)cc1/C(OC(C)OC(=O)OCCCl)=C(\C#N)c1ccc(C(C)(C)C)cc1 (stereo not drawn) [Compound 590] | – | ≥ 90 | – | ≥ 90 | – | ≥ 95 | – | – | –
CCn1nc(C)cc1/C(OC(C)OC(=O)OCC(F)(F)F)=C(\C#N)c1ccc(C(C)(C)C)cc1 (stereo not drawn) [Compound 595] | – | ≥ 90 | – | ≥ 90 | – | ≥ 95 | – | – | –
CCn1nc(C)cc1/C(OC(C)OC(=O)OCCOC)=C(\C#N)c1ccc(C(C)(C)C)cc1 (stereo not drawn) [Compound 596] | – | ≥ 90 | – | ≥ 90 | – | ≥ 95 | – | – | –
CCn1nc(C)cc1/C(OC(C)OC(=O)OCCSC)=C(\C#N)c1ccc(C(C)(C)C)cc1 (stereo not drawn) [Compound 599] | – | ≥ 90 | – | ≥ 90 | – | ≥ 95 | – | – | –
C=CCOC(=O)OC(C)O/C(=C(/C#N)c1ccc(C(C)(C)C)cc1)c1cc(C)nn1CC (stereo not drawn) [Compound 602] | ≥ 90 | ≥ 90 | ≥ 90 | ≥ 90 | ≥ 90 | ≥ 95 | – | – | –
